Reference: patent publication US12459930B2, “Compounds for the inhibition of unregulated cell growth” (GODAVARI BIOREFINERIES LIMITED, priority 2018, dated 2025)
Like-named read-outs stand apart in the source and are kept apart here.

Tests used:
[1] = test system: PC3 spheres (cancer stem cells); test: In vitro sphere-forming assay (cancer stem cells), PC3 in Prostosphere media; conditions: for 3D sphere count of PC3 in Prostosphere media: 2000 cells/well, n = 6 ± S.D; for viability at 0.0025 µM: read-out: % Viability of spheres (PC3), 0.0025 uM
Excerpt: (§3) In Vitro Sphere-forming Assay: Sphere assay measures the ability of cancer stem cells (CSCs) to form spheres in specially designed serum-free medium.
(§4) Materials and Reagents:50×B27 Supplement (Life Technologies, Invitrogen, Catlog No.: 17502-044), Fibroblast Growth Factor (FGF) (Sigma-Aldrich, Catlog No.: F029125), Epidermal Growth Factor (EGF) (Sigma-Aldrich, Catlog No.: E9644), Insulin (Sigma, Catlog No.: 19278), Dulbecco's Modified Eagle Medium/F12 (HiMedia Catlog No.: AL139-6), Dulbecco's Phosphate Buffered Saline (HiMedia Catlog No.: TL1006), Trypan Blue (TC193), Prostate Epithelial Media (LONZA, Catlog No.: CC-3166) MEGM (LONZA, Catlog No.: CC-3051), Heparin (Sigma, Catlog No.: H3393), Penstrep (HiMedia, Catlog No.: A002)
(§5) Prostosphere Media Preparation (For 100 mL): 1 g methyl cellulose autoclaved with magnetic stirrer, 100 mL plain media (Prostate Epithelial Basal Medium) was added and dissolved, under magnetic stirring. After complete dissolution, Insulin—40 μL, B27—2 mL, EGF—80 μL, Penstrep—1 ml was added.
(§6) Procedure—The cells were trypsinised and made into single-cell suspension by passing through cell strainers (100 μl and 40 μl, respectively), The cells were diluted at a concentration of 2000 cells/100 μL and suspended in either Mammosphere (for breast cell lines) or Prostosphere (for prostate cell lines). 100 μL of this suspension was added into each well of 96-well suspension plates and incubated at 37 C, 50 CO2 for 24 hrs. Appropriate concentrations of the drugs (2 L) were added into respective wells with 100 μL of stem cell culture medium. Plates were incubated at 37° C., 50% CO2 for 72 hrs. After incubation, 2.5 μL of the respective drug concentration and 50 μL of stem cell culture medium were added into each well and the plates were further incubated at 37° C., 500 CO2 for 72 hrs. 3 μL of the respective drug concentration was added with 50 μL of stem cell culture medium again after incubation and plates were reincubated for 72 hrs at 37° C., 500 CO2. Number of primary spheres formed for each concentration were counted. The spheres were converted to 0 viability of spheres compared to untreated (Growth Control with DMSO, GCD).

[2] = test system: DU145 prostate cancer cell line; test: In vitro antiproliferative assay (MTT assay), DU145; type: cell-based; conditions: Homo sapiens, DU-145, 48 h, 48 hrs drug incubation, read-out: IC50 in micromolar, DU145 (MTT assay)
Procedure, shortened: (§1)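 Compound exposure lasted 48 h at 37 °C in 5% CO2, following a 24 h attachment period; DMSO stocks were 0.1 M. Metabolic reduction of MTT (0.5 mg/ml, 4 h), solubilized in DMSO, gave viability, plotted as log % viability versus log drug concentration.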

[3] = test system: MDAMB231 breast cancer cell line; test: In vitro antiproliferative assay (MTT assay), MDAMB231; type: cell-based; conditions: 48 hrs drug incubation, read-out: IC50 in micromolar, MDAMB231 (MTT assay)
Procedure, shortened: as §1

[4] = test system: PC3 prostate cancer cell line; test: In vitro antiproliferative assay (MTT assay), PC3; type: cell-based; conditions: 48 h, 48 hrs drug incubation, read-out: IC50 in micromolar, PC3 (MTT assay)
Procedure, shortened: as §1

[5] = test system: MDAMB231 breast cancer cell line; test: Soft agar colony-formation assay, MDAMB231; type: cell-based; conditions: Homo sapiens, MDA-MB-231, 168 h, 1 week, Alamar Blue, read-out: IC50 in micromolar, MDAMB231 (Soft Agar Assay)
Procedure, shortened: (§2)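 Cells were embedded with drug in a top soft-agar layer over an agar base in 96-well format. Colonies grew for 1 week at 37 °C, 5% CO2, with medium feeding at day 3. Alamar Blue was added for 24 h, absorbance read at 630 nm, and log percent viability plotted against log drug concentration.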

[6] = test system: MDAMB231 spheres (cancer stem cells); test: In vitro sphere-forming assay (cancer stem cells), MDAMB231 in Mammosphere media; conditions: for 3D sphere count of MDAMB231 in Mammosphere media: 2000 cells/well, n = 6 ± S.D; for viability at 0.0025 µM / viability at 0.025 µM / viability at 0.25 µM / viability at 2.5 µM / viability at 25 µM: Homo sapiens, MDA-MB-231, read-out: % Viability of spheres (MDAMB231)
Description: as §3
Mammosphere Media Preparation (For 100 mL): 1 g methyl cellulose autoclaved with magnetic stirrer, 100 ml plain media (MEBM) was added and dissolved under magnetic stirring. After complete dissolution FGF—80 μL, EGF—40 μL, Penstrep—1 mL, Heparin—400 μL was added.
as §6

[7] = test system: PC3 prostate cancer cell line; test: Soft agar colony-formation assay, PC3; type: cell-based; conditions: 168 h, 1 week, Alamar Blue, read-out: IC50 in micromolar, PC3 (Soft Agar Assay)
Procedure, shortened: as §2

[8] = test system: PC3 spheres (cancer stem cells); conditions: human, 216 h
Excerpt: as §3, §4, §5, §6

Row | Compound | 3D sphere count of PC3 in Prostosphere media ([1]; 0.0025 uM) | 3D sphere count of PC3 in Prostosphere media ([1]; 0.025 uM) | 3D sphere count of PC3 in Prostosphere media ([1]; 0.25 uM) | 3D sphere count of PC3 in Prostosphere media ([1]; 2.5 uM) | 3D sphere count of PC3 in Prostosphere media ([1]; 25 uM) | viability at 0.0025 µM ([1]; GCD = 100% viability) [%] | IC50 [2] [µM] | IC50 [4] [µM] | IC50 [5] [µM] | 3D sphere count of MDAMB231 in Mammosphere media ([6]; 0.0025 uM) | 3D sphere count of MDAMB231 in Mammosphere media ([6]; 0.025 uM) | 3D sphere count of MDAMB231 in Mammosphere media ([6]; 0.25 uM) | 3D sphere count of MDAMB231 in Mammosphere media ([6]; 2.5 uM) | 3D sphere count of MDAMB231 in Mammosphere media ([6]; 25 uM) | viability at 0.0025 µM [6] [%] | viability at 0.025 µM [6] [%] | viability at 0.25 µM [6] [%] | viability at 2.5 µM [6] [%] | viability at 25 µM [6] [%] | IC50 [7] [µM] | also measured
1 | COc1cc2c(OCCCCN3CCOCC3)c3c(c(-c4ccc5c(c4)OCO5)c2cc1OC)C(=O)OC3.Cl [Formula VII, 4-(4-morpholinobutoxy)-9-(benzo[d][1,3]dioxol-5-yl)-6,7-dimethoxynaphtho[2,3-c]furan-1(3H)-one Hydrochloride] | 56(±3) | 46(±3) | 41(±3) | 37(±2) | 32(±3) | 69 | 2.34 | 2.75 | 2.05 | 58(±3) | 47(±3) | 36(±3) | 29(±3) | 21(±2) | 81 | 66 | 50 | 41 | 29 | 2.7 | IC50 ([3]; hydrochloride): 3.27 µM; % Viability of spheres (PC3) ([8]; 0.025 µM): 59(±3) %; % Viability of spheres (PC3) ([8]; 0.25 µM): 50(±2) %; % Viability of spheres (PC3) ([8]; 2.5 µM): 44(±2) %; % Viability of spheres (PC3) ([8]; 25 µM): 34(±3) %
2 | c1cc2c(cc1-c1ccc(OCCCCCCN3CCOCC3)c3c1CCCC3)OCO2 [Formula XX, 4-(6-(5-(benzo[d][1,3]dioxol-5-yl)-1,2,3,4-tetrahydronaphthalen-8-yloxy)hexyl) morpholine] | 48(±5) | 37(±2) | 33(±4) | 15(±3) | 0(±0) | 58 | 3.87 | 3.34 | 3.78 | 48(±4) | 37(±4) | 27(±3) | 14(±4) | 0(±0) | 61 | 47 | 34 | 17 | 0 | 3.31 | viability at 0.025 µM ([1]; read-out: % Viability of spheres (PC3), 0.025 uM, GCD = 100% viability): 45%; viability at 0.25 µM ([1]; read-out: % Viability of spheres (PC3), 0.25 uM, GCD = 100% viability): 40%; viability at 2.5 µM ([1]; read-out: % Viability of spheres (PC3), 2.5 uM, GCD = 100% viability): 18%; viability at 25 µM ([1]; read-out: % Viability of spheres (PC3), 25 uM, GCD = 100% viability): 0%; IC50 ([3]; Homo sapiens, MDA-MB-231, 48 h): 3.04 µM
